This experiment relates to Plasmodium berghei. Put plainly: Luciferase/luciferin-expressing antifolate-resistant parasites were used to infect a culture of HepG2 cells that were pre-incubated with compounds. Infected hepatocytes emit light due to the luciferase reaction. Assay results are presented as the percent inhibition of light emission compared to control. […]. Type of experiment: functional. Conditions: sporozoite; for IC90: read-out: LUCIFERASE INFECTION ASSAY - IC90.

One may read the IC50 as the concentration at which inhibition is half-maximal. In general, IC90 refers to the concentration at which the effect reaches the 90% level. On to `O=C(C1CC1)N1CCc2sccc2C1c1ccc(Cl)cc1` (configuration not stated), for which the IC90 was above 10.4 µM. Moreover, the IC50 (PBLUC_HILL_SLOPE 3.12, PBLUC_R_SQUARED 0.0785, read-out: LUCIFERASE INFECTION ASSAY - IC50) turned out to be 9.69 µM.
Consider `COc1ccc(-c2c[n+]3c4n2CCCCC4=C(c2ccccc2)C3)cc1`, for which the IC90 was above 10 µM. Moreover, the IC50 (PBLUC_HILL_SLOPE 3.06, PBLUC_R_SQUARED 0.525, read-out: LUCIFERASE INFECTION ASSAY - IC50) was found to be 6.77 µM.
As for `NC1=NC(=O)C(Cc2ccc(OC(F)(F)F)cc2)S1` (configuration not stated), the IC90 stood at 1.02 µM. Moreover, the IC50 (PBLUC_HILL_SLOPE 3.06, PBLUC_R_SQUARED 0.937, read-out: LUCIFERASE INFECTION ASSAY - IC50) was 0.497 µM.
For the compound `CS(=O)(=O)c1ccc(-c2cnc3c(NC=O)cc(-c4ccsc4)cn23)cc1`, the IC90 turned out to be 4.59 µM. The IC50 (PBLUC_HILL_SLOPE 3.07, PBLUC_R_SQUARED 0.32, read-out: LUCIFERASE INFECTION ASSAY - IC50) was determined as 2.24 µM.
For `N#Cc1ccc(-c2cnc3cnc(-c4cccs4)cn23)cc1`, the IC90 was 9.18 µM. For the same compound, where the note is “PBLUC_HILL_SLOPE 3.09, PBLUC_R_SQUARED 0.489, read-out: LUCIFERASE INFECTION ASSAY - IC50”, the IC50 came out at 4.51 µM.
With `Cc1ccc(C)c(Nc2sc(-c3cc(=O)oc4c(C)c(C)ccc34)c(N)c2-c2nc3ccccc3s2)c1`, the IC90 was 9.38 µM. For the same compound, the IC50 (PBLUC_HILL_SLOPE 3.07, PBLUC_R_SQUARED 0.45, read-out: LUCIFERASE INFECTION ASSAY - IC50) stood at 4.59 µM.
As to `COCCN1C(=O)N(Cc2cccc(OC)c2)C(=O)C12CCN(C1CCc3ccccc3C1)CC2` (configuration not stated), the IC90 was above 6.91 µM. The IC50 (PBLUC_HILL_SLOPE 3.06, PBLUC_R_SQUARED 0.614, read-out: LUCIFERASE INFECTION ASSAY - IC50) turned out to be 4.45 µM.
In the case of `COc1ccc(-c2cnc3cnc(-c4cnn(C)c4)cn23)cn1`, the IC90 was above 10.8 µM. Further, where the note is “PBLUC_HILL_SLOPE 3.07, PBLUC_R_SQUARED 0.552, read-out: LUCIFERASE INFECTION ASSAY - IC50”, the IC50 was found to be 6.4 µM.
As for `CC(C)Cn1c(SCC(=O)Nc2ccccc2C(=O)OC2CC(C)CCC2C(C)C)nnc1-c1cccc(S(=O)(=O)N2CCOCC2)c1` (configuration not stated), the IC90 was above 10 µM. In addition, the IC50 (PBLUC_HILL_SLOPE 3.05, PBLUC_R_SQUARED 0.72, read-out: LUCIFERASE INFECTION ASSAY - IC50) turned out to be 5.79 µM.
On to `CSc1ccc(-c2nccc3n[nH]c(C4CC4)c23)cc1`, for which the IC90 is above 10 µM. For the same compound, the IC50 (PBLUC_HILL_SLOPE 3.07, PBLUC_R_SQUARED 0.601, read-out: LUCIFERASE INFECTION ASSAY - IC50) worked out at 5.61 µM.
Consider `Cn1c(Nc2ccccc2)nc2cnc(-c3ccc(F)c(Cl)c3)cc21`, for which the IC90 was above 10 µM. In addition, the IC50 (PBLUC_HILL_SLOPE 3.09, PBLUC_R_SQUARED 0.397, read-out: LUCIFERASE INFECTION ASSAY - IC50) was determined as 7.42 µM.
With `COc1ccc(OC)c(CCNc2nc3cnc(-c4cc(OC)c(OC)c(OC)c4)cc3n2C)c1`, the IC90 was above 10 µM. In addition, the IC50 (PBLUC_HILL_SLOPE 3.05, PBLUC_R_SQUARED 0.174, read-out: LUCIFERASE INFECTION ASSAY - IC50) is 7.61 µM.
As to `Cc1cccc(-c2nn(-c3ccccc3)cc2/C=C/C(=O)c2c(C)[nH]c(=O)[nH]c2=O)c1`, the IC90 was above 10 µM. For the same compound, where the note is “PBLUC_HILL_SLOPE 3.1, PBLUC_R_SQUARED 0.412, read-out: LUCIFERASE INFECTION ASSAY - IC50”, the IC50 came to 5.95 µM.
Consider `CN(C)C1(CNC(=O)c2ccc(Cl)c(S(=O)(=O)N(C)c3ccc(Cl)cc3)c2)CCCCC1`, for which the IC90 was above 10 µM. The IC50 (PBLUC_HILL_SLOPE 3.05, PBLUC_R_SQUARED 0.312, read-out: LUCIFERASE INFECTION ASSAY - IC50) was 8.97 µM.
On to `CCCc1cc(=O)nc(SCC(=O)C23CC4CC(CC(C4)C2)C3)[nH]1`, for which the IC90 amounted to 9.67 µM. Further, under “PBLUC_HILL_SLOPE 3.05, PBLUC_R_SQUARED 0.0755, read-out: LUCIFERASE INFECTION ASSAY - IC50”, the IC50 is 4.7 µM.
`CCCc1ccc(C(=O)/C(C#N)=c2\s/c(=C\c3cccs3)c(=O)n2-c2cc(C)ccc2C)cc1`: the IC90 was above 10 µM. Besides, for the setting “PBLUC_HILL_SLOPE 3.09, PBLUC_R_SQUARED 0.669, read-out: LUCIFERASE INFECTION ASSAY - IC50”, the IC50 amounted to 6.42 µM.
For the compound `O=C(/C=N/Nc1ncc(C(F)(F)F)cc1Cl)c1ccccn1`, the IC90 was above 10 µM. Where the note is “PBLUC_HILL_SLOPE 3.06, PBLUC_R_SQUARED 0.0968, read-out: LUCIFERASE INFECTION ASSAY - IC50”, the IC50 is 8.78 µM.
For `O=c1nc(-c2ccc(Cl)cc2)oc2ccccc12`, the IC90 came out at 10.8 µM. Moreover, the IC50 (PBLUC_HILL_SLOPE 3.1, PBLUC_R_SQUARED 0.539, read-out: LUCIFERASE INFECTION ASSAY - IC50) amounted to 5.33 µM.
In the case of `Cc1nn(C)c2nc(-c3cccs3)cc(C(=O)Nc3ccccc3C(=O)NCC3CCCO3)c12` (configuration not stated), the IC90 is above 10 µM. The IC50 (PBLUC_HILL_SLOPE 3.11, PBLUC_R_SQUARED 0.411, read-out: LUCIFERASE INFECTION ASSAY - IC50) stood at 5.11 µM.
`CN(Cc1ccccc1)S(=O)(=O)c1ccc(Cl)c(C(=O)Nc2nnc(C(F)(F)F)[nH]2)c1`: the IC90 was found to be 7.66 µM. Further, the IC50 (PBLUC_HILL_SLOPE 3.05, PBLUC_R_SQUARED 0.465, read-out: LUCIFERASE INFECTION ASSAY - IC50) was 3.73 µM.
With `CCNC(=O)c1cc2c(s1)CCC(C(C)(C)C)C2` (configuration not stated), the concentration for an effect of 90% (IC90) was above 10 µM. For the setting “PBLUC_HILL_SLOPE 3.05, PBLUC_R_SQUARED 0.267, read-out: LUCIFERASE INFECTION ASSAY - IC50”, the IC50 is 6.74 µM.
Consider `CCN(CC)c1ccc(/C=N/NC(=S)NC(C)C)c(O)c1`, for which the IC90 was above 10 µM. The IC50 (PBLUC_HILL_SLOPE 3.12, PBLUC_R_SQUARED 0.566, read-out: LUCIFERASE INFECTION ASSAY - IC50) is 7.29 µM.
`CC1=NN(c2ccccc2)C(=O)/C1=C\c1c(C)nn(-c2ccccc2)c1Sc1nc2ccccc2s1`: the IC90 is above 10 µM. The IC50 (PBLUC_HILL_SLOPE 3.11, PBLUC_R_SQUARED 0.577, read-out: LUCIFERASE INFECTION ASSAY - IC50) amounted to 6.6 µM.
On to `COc1ccc(CCC(=O)NNC(=O)c2ccc3ccccc3n2)cc1Br`, for which the IC90 worked out at 5.65 µM. Moreover, the IC50 (PBLUC_HILL_SLOPE 3.11, PBLUC_R_SQUARED 0.471, read-out: LUCIFERASE INFECTION ASSAY - IC50) turned out to be 2.79 µM.
As for `O=C(Nc1ccc(OC(F)(F)F)cc1)Nc1ccc2nc(-c3ccc(F)c(Cl)c3)nn2c1`, the IC90 was above 10 µM. In addition, the IC50 (PBLUC_HILL_SLOPE 3.06, PBLUC_R_SQUARED 0.207, read-out: LUCIFERASE INFECTION ASSAY - IC50) came to 7.2 µM.
Consider `CC(C)C(NC(=O)c1ccc(F)cc1)C(=O)NCC1Cc2ccccc21` (configuration not stated), for which the IC90 was above 10 µM. Also, the IC50 (PBLUC_HILL_SLOPE 3.06, PBLUC_R_SQUARED 0.302, read-out: LUCIFERASE INFECTION ASSAY - IC50) stood at 6.96 µM.
